{"source": "patent US11021686B2", "about": "“In vitro production of cholangiocytes” (CAMBRIDGE ENTERPRISE LIMITED, priority 2015, dated 2021)", "key": {"CLC organoids": {"tested_on": "CLC organoids", "test": "Measurement of intracellular calcium levels (Fluo-4) in CLC organoids", "format": "cell-based, human", "conditions": "1 μM Acetylcholine or 30 μM ATP", "method": "Intracellular calcium signaling, regulated by stimuli such as acetylcholine and ATP constitutes a key second messenger for cholangiocytes (18). CLC organoids were incubated with 25 μM of the calcium indicator Fluo-4 AM (Life technologies) for 60 minutes at 37° C. and washed 3 times with William's E medium. Fresh William's E medium with supplements was added following the third wash. The organoids were stimulated with 1 μM of Acetylcholine (Sigma-Aldrich) or 30 μM of ATP (Sigma-Aldrich), while time lapse images were taken. Each measurement was repeated in triplicate. To calculate the number of cells responding to stimulation, the number of cells loaded with Fluo-4 AM was counted by 2 different researchers prior to the start of the experiment. Following stimulation with ATP or acetylcholine the number of responding cells (increase in fluorescence) was also counted and responsiveness was expressed as the ratio of responding cells over the total number of cells loaded with Fluo-4 AM. The statistical approach for smoothing the data and plotting bands for the confidence limits please see ‘Statistical analyses’."}, "hESC-Chol": {"tested_on": "hESC-Chol", "conditions": "Dianat et al (6); cited from earlier work"}}, "note": "Entries after “also recorded” stand apart in the source; their conditions may differ."}
{"molecule": "Nc1ncnc2c1ncn2[C@@H]1O[C@H](COP(=O)(O)OP(=O)(O)OP(=O)(O)O)[C@@H](O)[C@H]1O", "note": "[ATP]", "values": [{"measurement": "intracellular calcium levels", "setting": "CLC organoids; CLC organoids loaded with Fluo-4", "result": "increasing intracellular calcium levels; also recorded: an increase in intracellular calcium levels"}, {"measurement": "responsiveness (responding cells over total cells loaded with Fluo-4 AM)", "setting": "CLC organoids; CLCs", "result": 95, "unit": "%"}, {"measurement": "responsiveness of hESC-Chol", "setting": "hESC-Chol", "result": 70, "unit": "%"}]}
